# In patent US20250381273A1, “Augmenting Mitochondria in Immune Cells for Improved Cancer Immunotherapy” (LEIBNIZ-INSTITUT FÜR IMMUNTHERAPIE (LIT), priority 2022, published 2025):
# What was measured:
# [1] = tested on: nanotube-mediated mitochondria transfer; conditions: Nature Nanotechnology (2022) 17, 98-106; cited from earlier work
# [2] = tested on: mouse Mito-DsRed BMSCs or CD8+ T cells; assay: Inhibitor drug treatment study, mouse co-culture; format: cell-based; conditions: 1-10 μM, data not shown
# Protocol: (§1) For pharmacological inhibition studies, both mouse and human Mito-DsRed BMSCs or CD8+ T cells were treated with 1-10 μM of farnesyltransferase/geranylgeranyltransferase 1 inhibitor (L-778123) (Biomol) incubated separately in their respective basal media for 7 hrs before or during co-culture. Cell viability of the different drug treatments was determined using the Trypan Blue exclusion test and quantified manually using a hemacytometer. All experiments were performed on at least 3-6 biological replicates/donors per condition.
# [3] = tested on: human Mito-DsRed BMSCs or CD8+ T cells; assay: Inhibitor drug treatment study, human co-culture; format: cell-based; conditions: 1-10 μM, data not shown
# Protocol: as §1
compound,measurement,setting,value
"N#Cc1ccc(Cn2cncc2CN2CCN(c3cccc(Cl)c3)C(=O)C2)cc1 [L-788,123]",nanotube-mediated mitochondria transfer,[1],partially block
same,mitochondrial transfer in co-culture,[2],confirmed that TNTs is a primary mediator of mitochondrial transfer
same,mitochondrial transfer in co-culture,[3],confirmed that TNTs is a primary mediator of mitochondrial transfer
